According to US20240374573A1, “IMIDAZOLE CONTAINING COMPOUNDS, DERIVATIVES THEREFORE, AND USES THEREOF” (AglaeaPharma Inc., priority 2023, published 2024):

What was measured:
[1] = target: P-glycoprotein (P-gp, MDR1) (Homo sapiens, UniProt P08183); assay: in vitro; conditions: dog, MDCK-MDR1, pH 7.4
Method: MDR1-MDCK II cells (obtained from Piet Borst at the Netherlands Cancer Institute) were seeded onto Polycarbonate membranes (PC) in 96-well insert systems at 3.33×10^5 cells/mL until to 4-7 days for confluent cell monolayer formation.
Selected α2AR agonist from table 3s were diluted with the transport buffer (HBSS with 10.0 mM Hepes, pH7.4) from DMSO stock solution to a concentration of 2 μM (DMSO<1%) and applied to the apical or basolateral side of the cell monolayer. […] Permeation of the test compounds from A to B direction and/or B to A direction was determined in duplicate. Digoxin was tested at 10.0 μM from A to B direction and B to A direction in duplicate. The plate was incubated for 2.5 hours in CO2 incubator at 37.0±1.0° C., with 5.0% CO2 at saturated humidity without shaking. In addition, the efflux ratio of each compound was also determined. Test and reference compounds were quantified by LC/MS/MS analysis based on the peak area ratio of analyte/IS.
After transport assay, lucifer yellow rejection assay was applied to determine the cell monolayer integrity. Buffers were removed from both apical and basolateral chambers, followed by the addition of 75 μL of 100 μM lucifer yellow in transport buffer and 250 μL transport buffer in apical and basolateral chambers, respectively. The plate was incubated for 30 minutes at 37.0° C. with 5.0% CO2 and 95.0% relative humidity without shaking. After 30 minutes incubation, 20 μL of lucifer yellow samples were taken from the apical sides, followed by the addition of 60 μL of transport Buffer. And then 80 μL of lucifer yellow samples were taken from the basolateral sides. The relative fluorescence unit (RFU) of lucifer yellow was measured at 425/528 nm (excitation/emission) with an Envision plate reader.
The apparent permeability coefficient Papp (cm/s) was calculated using the equation: […]
wherein dCr/dt is the cumulative concentration of compound in the receiver chamber as a function of time (μM/s); Vr is the solution volume in the receiver chamber (0.075 mL on the apical side, 0.25 mL on the basolateral side); A is the surface area for the transport, i.e. 0.143 cm2 for the area of the monolayer; and C0 is the initial concentration in the donor chamber (μM).
The efflux ratio was calculated using the equation: […]

α2AAR = target: T1, α2AAR (Homo sapiens, UniProt P08913); assay: α2AAR binding assay ([3H]-RX 821002 radioligand); conditions: [3H]-RX 821002 0.5 nM, HEK293 membranes; read-out: α2A affinity (Ki)
T1 construct: host or cells: HEK293 (membranes)
T1 sequence (P08913 1-465): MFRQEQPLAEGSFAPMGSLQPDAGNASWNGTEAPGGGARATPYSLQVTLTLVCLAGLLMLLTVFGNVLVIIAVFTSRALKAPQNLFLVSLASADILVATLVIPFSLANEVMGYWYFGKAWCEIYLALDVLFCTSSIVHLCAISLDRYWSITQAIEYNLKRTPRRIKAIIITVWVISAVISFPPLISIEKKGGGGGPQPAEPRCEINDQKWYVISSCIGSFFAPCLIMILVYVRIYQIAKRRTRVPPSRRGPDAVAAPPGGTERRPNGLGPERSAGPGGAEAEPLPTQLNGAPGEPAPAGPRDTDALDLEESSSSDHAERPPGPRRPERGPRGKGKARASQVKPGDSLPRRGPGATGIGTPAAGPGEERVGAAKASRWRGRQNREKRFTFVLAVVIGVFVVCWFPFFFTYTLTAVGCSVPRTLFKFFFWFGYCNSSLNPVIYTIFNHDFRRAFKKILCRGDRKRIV

[2] = target: T2, α2AAR (α2A-adrenergic receptor) (Homo sapiens, UniProt P08913); assay: α2AAR FLIPR assay (agonist activity); format: cell-based; conditions: FLIPR, α2AAR cell line hosted in HEK293 cells; read-out: α2A agonist activity (EC50)
T2 construct: expressed in transfected cells; host or cells: HEK293
T2 sequence (P08913 1-465): T1 sequence (P08913 1-465)
Outline: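 HEK293 cells expressing α2AAR loaded with Fluo-4 Direct plus probenecid for 50 min at 37° C and 10 min at room temperature, then treated with serially diluted compounds.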

P-glycoprotein (P-gp, MDR1), sequence (P08183 whole entry): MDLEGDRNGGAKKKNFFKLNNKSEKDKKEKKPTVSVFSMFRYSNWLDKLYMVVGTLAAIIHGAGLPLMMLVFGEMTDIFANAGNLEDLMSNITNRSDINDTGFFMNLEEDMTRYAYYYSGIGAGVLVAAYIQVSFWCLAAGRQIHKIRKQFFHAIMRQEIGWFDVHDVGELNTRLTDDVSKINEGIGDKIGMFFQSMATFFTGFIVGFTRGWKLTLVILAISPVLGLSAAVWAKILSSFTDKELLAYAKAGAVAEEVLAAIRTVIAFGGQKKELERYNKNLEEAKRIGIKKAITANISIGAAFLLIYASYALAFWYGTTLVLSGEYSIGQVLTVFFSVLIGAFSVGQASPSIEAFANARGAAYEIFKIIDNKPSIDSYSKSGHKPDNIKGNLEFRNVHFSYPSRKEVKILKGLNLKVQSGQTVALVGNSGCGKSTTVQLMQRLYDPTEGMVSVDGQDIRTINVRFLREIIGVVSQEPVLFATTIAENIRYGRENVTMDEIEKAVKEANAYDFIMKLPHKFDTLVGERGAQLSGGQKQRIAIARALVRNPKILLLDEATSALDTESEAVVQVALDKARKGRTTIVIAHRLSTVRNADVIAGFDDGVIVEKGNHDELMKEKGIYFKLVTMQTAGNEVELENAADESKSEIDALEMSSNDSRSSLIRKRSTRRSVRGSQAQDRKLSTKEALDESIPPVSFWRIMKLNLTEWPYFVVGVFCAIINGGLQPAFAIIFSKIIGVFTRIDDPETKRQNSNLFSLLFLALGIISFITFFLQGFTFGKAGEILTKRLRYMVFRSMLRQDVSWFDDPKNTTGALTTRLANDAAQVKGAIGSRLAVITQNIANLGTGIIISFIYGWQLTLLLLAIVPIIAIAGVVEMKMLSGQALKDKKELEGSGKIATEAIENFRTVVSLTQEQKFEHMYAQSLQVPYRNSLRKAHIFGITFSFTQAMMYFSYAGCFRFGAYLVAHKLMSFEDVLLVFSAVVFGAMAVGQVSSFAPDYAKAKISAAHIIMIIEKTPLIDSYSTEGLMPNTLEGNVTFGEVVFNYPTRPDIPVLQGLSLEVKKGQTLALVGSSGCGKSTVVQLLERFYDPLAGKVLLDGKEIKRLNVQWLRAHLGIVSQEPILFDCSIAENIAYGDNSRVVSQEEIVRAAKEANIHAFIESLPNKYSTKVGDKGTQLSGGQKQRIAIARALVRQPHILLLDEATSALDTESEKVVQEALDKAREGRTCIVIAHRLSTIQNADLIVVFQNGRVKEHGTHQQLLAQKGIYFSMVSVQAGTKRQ

efflux ratio at 2.5 h, 2 μM [1]	Ki (α2AAR) [nM]	EC50 [2] [nM]	Compound
25.3	10 to 50	10 to 50	Cc1c(CF)cccc1C(c1cccc(NS(C)(=O)=O)c1)c1c[nH]cn1 (racemic) [compound 118]
51	50 to 250	10 to 50	CONC(=O)c1cccc(C(c2c[nH]cn2)c2cccc(C)c2C)c1 (single isomer, unassigned) [1-B]
33.2	10 to 50	10 to 50	Cc1cccc(C(c2cccc(C(N)=O)c2)c2c[nH]cn2)c1C (single isomer, unassigned) [5-B]
14	< 10	10 to 50	Cc1cccc(C(c2c[nH]cn2)c2cccc(C(N)=O)c2F)c1C (single isomer, unassigned) [45-B]
30.9	< 10	< 10	Cc1cccc(C(c2cccc(C(=O)NC3CCOCC3)c2)c2c[nH]cn2)c1C (single isomer, unassigned) [121-B]
10.3	< 10	10 to 50	Cc1cccc(C(c2c[nH]cn2)c2cccc(C(=O)NCC3CCOCC3)c2F)c1C (single isomer, unassigned) [124-B]
2.86	< 10	< 10	Cc1cccc(C(Cc2ccc(C(N)=O)c(F)c2)c2c[nH]cn2)c1C (single isomer, unassigned) [156-B]
0.83	–	–	Brc1c(NC2=NCCN2)ccc2nccnc12 [Brimonidine, brimonidine, reference compound]
13.7	–	–	C[C@H]1O[C@@H](O[C@H]2[C@@H](O)C[C@H](O[C@H]3[C@@H](O)C[C@H](O[C@H]4CC[C@@]5(C)[C@H](CC[C@@H]6[C@@H]5C[C@@H](O)[C@]5(C)[C@@H](C7=CC(=O)OC7)CC[C@]65O)C4)O[C@@H]3C)O[C@@H]2C)C[C@H](O)[C@@H]1O [Digoxin, reference compound]
82.6	–	–	Cc1cccc(C(c2cccc(C(=O)NCC3CCOCC3)c2)c2c[nH]cn2)c1C (centres unmarked) [compound 98]
–	< 10	10 to 50	Cc1cccc(C(Cc2ccc(NC(=S)C3CCOCC3)cc2)c2c[nH]cn2)c1C (centres unmarked) [compound 212]
–	50 to 250	10 to 50	Cc1cccc(C(Cc2ccc(C(=O)O)c(O)c2)c2c[nH]cn2)c1C (centres unmarked) [compound 218]
–	< 10	< 10	Cc1cccc(C(c2cccc(-c3cnnn3C3CCOCC3)c2)c2c[nH]cn2)c1C (centres unmarked) [compound 220]
–	10 to 50	10 to 50	Cc1cccc(C(Cc2ccc(S(=O)(=O)O)cc2)c2c[nH]cn2)c1C (centres unmarked) [compound 221]
–	10 to 50	10 to 50	CC(=O)N(C)c1ccc(CC(c2c[nH]cn2)c2cccc(C)c2C)cc1 (centres unmarked) [compound 222]
–	< 10	10 to 50	Cc1cccc(C(Cc2ccc(O)c(O)c2)c2c[nH]cn2)c1C (centres unmarked) [compound 223]
–	< 10	< 10	COc1ccc(CC(c2c[nH]cn2)c2cccc(C)c2C)cc1OC (centres unmarked) [compound 224]
–	< 10	< 10	Cc1cccc(C(Cc2ccc3c(c2)OCC(=O)N3)c2c[nH]cn2)c1C (centres unmarked) [compound 225]
–	< 10	< 10	COc1cc(CC(c2c[nH]cn2)c2cccc(C)c2C)cc(OC)c1OC (centres unmarked) [compound 226]
–	10 to 50	10 to 50	Cc1cccc(C(Cc2ccc(C(C)c3nnn[nH]3)cc2)c2c[nH]cn2)c1C (centres unmarked) [compound 227]
–	< 10	< 10	Cc1cccc(C(Cc2ccc(N(C)C(=O)N(C)C)cc2)c2c[nH]cn2)c1C (centres unmarked) [compound 228]
–	50 to 250	10 to 50	Cc1cccc(C(Cc2ccc(C(=O)NCC(=O)O)cc2)c2c[nH]cn2)c1C (centres unmarked) [compound 229]
–	< 10	10 to 50	Cc1cccc(C(Cc2ccc3c(c2)CCC(=O)N3)c2c[nH]cn2)c1C (centres unmarked) [compound 230]
–	10 to 50	10 to 50	CNc1cccc(CC(c2c[nH]cn2)c2cccc(C)c2C)c1 (centres unmarked) [compound 231]

efflux ratio at 2.5 h, 2 μM [1]	Ki (α2AAR) [nM]	EC50 [2] [nM]	Compound
–	< 10	< 10	Cc1cccc(C(Cc2ccc(S(C)(=O)=O)cc2)c2c[nH]cn2)c1C (centres unmarked) [compound 232]
–	10 to 50	10 to 50	Cc1cccc(C(Cc2ccc(C(=O)NC3CCOCC3)c(O)c2)c2c[nH]cn2)c1C (centres unmarked) [compound 233]
–	< 10	10 to 50	Cc1cccc(C(Cc2ccc(NC(=O)C3CCO3)cc2)c2c[nH]cn2)c1C (centres unmarked) [compound 234]
–	< 10	10 to 50	Cc1cccc(C(Cc2ccc3c(c2)OCCN3)c2c[nH]cn2)c1C (centres unmarked) [compound 235]
–	50 to 250	10 to 50	Cc1cccc(C(Cc2ccc(C(=O)NCCC(=O)O)cc2)c2c[nH]cn2)c1C (centres unmarked) [compound 236]
–	< 10	10 to 50	CNC(=O)Nc1ccc(CC(c2c[nH]cn2)c2cccc(C)c2C)cc1 (centres unmarked) [compound 237]
–	50 to 250	10 to 50	Cc1cccc(C(Cc2ccc(OCC(=O)O)cc2)c2c[nH]cn2)c1C (centres unmarked) [compound 239]
–	10 to 50	10 to 50	Cc1cccc(C(Cc2ccc(-c3nnn(C)n3)cc2)c2c[nH]cn2)c1C (centres unmarked) [compound 241]
–	50 to 250	10 to 50	Cc1cccc(C(Cc2ccc(NC(=O)C3CCOCC3)nc2)c2c[nH]cn2)c1C (centres unmarked) [compound 242]
–	< 10	< 10	Cc1cccc(C(Cc2ccc(N3CCN(C)C3=O)cc2)c2c[nH]cn2)c1C (centres unmarked) [compound 243]
–	50 to 250	50 to 250	Cc1ccccc1C(Cc1ccc(C(N)=O)cc1)c1c[nH]cn1 (centres unmarked) [compound 244]
–	< 10	< 10	Cc1cccc(C(Cc2ccc(NC(=O)N(C)C3CCOC3)cc2)c2c[nH]cn2)c1C (centres unmarked) [compound 245]
–	10 to 50	10 to 50	Cc1cccc(C(Cc2ccc3c(c2)NCCN3)c2c[nH]cn2)c1C (centres unmarked) [compound 246]
–	< 10	10 to 50	CC(=O)Nc1ccc(CC(c2c[nH]cn2)c2cccc(C)c2C)c(F)c1 (centres unmarked) [compound 247]
–	50 to 250	10 to 50	CC(=O)Nc1ccc(CC(c2c[nH]cn2)c2cccc(C)c2C)cn1 (centres unmarked) [compound 248]
–	50 to 250	10 to 50	Cc1cccc(C(Cc2ccc(C(C)(C)C(=O)O)cc2)c2c[nH]cn2)c1C (centres unmarked) [compound 251]
–	< 10	50 to 250	CONC(=O)c1cccc(CC(NC2=NCCO2)c2ccccc2OC)c1 (centres unmarked) [compound 503, 3-[2-(4,5-dihydro-1,3-oxazol-2-ylamino)-2-(2-methoxyphenyl)ethyl]-N-methoxybenzamide]
–	< 10	50 to 250	COc1ccccc1C(Cc1cccc(NS(C)(=O)=O)c1)N=C1NCCN1 (centres unmarked) [compound 505, N-{3-[2-(imidazolidin-2-ylideneamino)-2-(2-methoxyphenyl)ethyl]phenyl}methanesulfonamide]
–	< 10	50 to 250	CONC(=O)c1cccc(CC(NC2=NCCS2)c2cccc(Cl)c2)c1 (centres unmarked) [compound 506]
–	< 10	50 to 250	COc1ccccc1C(Cc1cccc(NS(C)(=O)=O)c1)NC1=NCCO1 (centres unmarked) [compound 509]
–	< 10	50 to 250	COc1ccccc1C(Cc1cccc(NS(=O)(=O)CC2CCOCC2)c1)NC1=NCCS1 (centres unmarked) [compound 515]
–	50 to 250	50 to 250	CS(=O)(=O)Nc1cccc(CC(Oc2c(Cl)cccc2Cl)C2=NCCN2)c1 (centres unmarked) [compound 516]
–	10 to 50	50 to 250	CNS(=O)(=O)c1ccc(CC(Oc2c(Cl)cccc2Cl)C2=NCCN2)cc1 (centres unmarked) [compound 519]
